Here are results for seven compounds from PMC4929166, “Pharmacological evaluation of synthetic cannabinoids identified as constituents of spice” (Forensic Toxicology, 2016).

One assay concerns the target Human CB1. The note with it: cited from earlier work; for Ki: read-out: Ki Human CB1 (literature) (converted).
The next assay addresses Human CB2. The note with it: cited from earlier work; for Ki: read-out: Ki Human CB2 (literature) (converted).
Assay [1] deals with T1, human GPR55 (Homo sapiens, UniProt Q9Y2T6).
T1 construct: β-galactosidase enzyme fragment (PathHunter complementation tag)
T1 sequence (Q9Y2T6 whole entry, the tested form may be a part): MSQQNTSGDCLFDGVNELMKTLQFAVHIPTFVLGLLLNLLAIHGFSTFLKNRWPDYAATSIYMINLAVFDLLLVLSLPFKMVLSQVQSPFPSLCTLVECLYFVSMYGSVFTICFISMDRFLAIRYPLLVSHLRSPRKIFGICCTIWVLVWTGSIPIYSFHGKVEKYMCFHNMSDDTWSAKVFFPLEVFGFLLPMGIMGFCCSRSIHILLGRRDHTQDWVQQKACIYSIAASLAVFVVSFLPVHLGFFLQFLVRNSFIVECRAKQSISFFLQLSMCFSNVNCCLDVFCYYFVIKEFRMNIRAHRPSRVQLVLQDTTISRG
Kind of assay: β-Arrestin recruitment assay (PathHunter) at GPR55. It counts as cell-based. The note with it: for IC50: antagonist mode; for Human GPR55 % activation: percent in brackets beside EC50 >10 µM; for Human GPR55 % inhibition: percent in brackets beside IC50. The method, then:
(§1) Recruitment of β-arrestin to the respective receptor was detected by using β-galactosidase enzyme fragment complementation technology (β-arrestin PathHunter™ assay, DiscoverX, Fremont, CA, USA) as previously described. Data were obtained from three independent experiments, performed in duplicates. Data were analyzed using Graph Pad Prism Version 4.02 (San Diego, CA, USA).
A general note: Activated receptors often draw arrestin, which recruitment assays turn into a signal.

For assay [2], the target named is T2, CB1 receptor (Homo sapiens, UniProt P21554). The experiment in a line: biochemical. The class given is binding. On the set-up: expressed in transfected cells; host or cells: CHO cells (membrane preparation).
T2 sequence (P21554 whole entry): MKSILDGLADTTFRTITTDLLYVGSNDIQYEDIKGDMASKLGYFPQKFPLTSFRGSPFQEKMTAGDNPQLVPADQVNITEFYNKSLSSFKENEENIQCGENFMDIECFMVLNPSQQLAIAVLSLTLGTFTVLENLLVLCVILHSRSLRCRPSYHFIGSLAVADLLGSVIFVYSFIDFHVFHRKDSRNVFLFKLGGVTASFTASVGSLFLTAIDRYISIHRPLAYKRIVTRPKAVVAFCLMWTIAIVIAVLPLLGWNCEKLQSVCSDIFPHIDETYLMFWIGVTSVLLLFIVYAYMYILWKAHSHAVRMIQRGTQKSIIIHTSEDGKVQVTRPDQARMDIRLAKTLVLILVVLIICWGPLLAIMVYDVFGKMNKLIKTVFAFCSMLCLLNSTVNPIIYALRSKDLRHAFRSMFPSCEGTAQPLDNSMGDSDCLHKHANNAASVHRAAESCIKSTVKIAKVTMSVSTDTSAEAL
Assay [3] deals with T3, human GPR18 (Homo sapiens, UniProt Q14330).
T3 construct: β-galactosidase enzyme fragment (PathHunter complementation tag)
T3 sequence (Q14330 1-331): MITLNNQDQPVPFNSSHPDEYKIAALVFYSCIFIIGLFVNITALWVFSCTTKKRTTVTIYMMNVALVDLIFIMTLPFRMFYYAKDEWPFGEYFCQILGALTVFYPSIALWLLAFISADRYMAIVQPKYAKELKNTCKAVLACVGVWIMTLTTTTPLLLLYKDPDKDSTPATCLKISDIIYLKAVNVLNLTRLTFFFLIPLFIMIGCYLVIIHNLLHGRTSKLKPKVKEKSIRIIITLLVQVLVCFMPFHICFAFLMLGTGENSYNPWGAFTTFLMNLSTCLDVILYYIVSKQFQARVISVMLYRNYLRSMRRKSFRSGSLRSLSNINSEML
Kind of assay: β-Arrestin recruitment assay (PathHunter) at GPR18. The class given is cell-based. As to conditions: for Human GPR18 % activation: percent in brackets beside EC50 >10 µM; for Human GPR18 % inhibition: percent in brackets beside IC50. Here is the method:
as §1

For assay [4], the target named is T4, CB2 receptor (Homo sapiens, UniProt P34972). The experiment in a line: biochemical. It counts as binding. Set-up: expressed in transfected cells; host or cells: CHO cells (membrane preparation).
T4 sequence (P34972 whole entry): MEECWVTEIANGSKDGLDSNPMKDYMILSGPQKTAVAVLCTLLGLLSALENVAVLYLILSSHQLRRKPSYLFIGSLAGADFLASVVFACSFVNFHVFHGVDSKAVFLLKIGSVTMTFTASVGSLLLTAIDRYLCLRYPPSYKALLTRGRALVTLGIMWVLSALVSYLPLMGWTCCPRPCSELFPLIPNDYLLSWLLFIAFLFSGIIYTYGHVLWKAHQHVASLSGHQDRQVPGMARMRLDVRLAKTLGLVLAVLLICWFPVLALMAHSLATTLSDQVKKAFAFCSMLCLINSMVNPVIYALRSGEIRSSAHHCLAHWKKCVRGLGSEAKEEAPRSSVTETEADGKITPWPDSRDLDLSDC
Assay [5] concerns the target T1, human GPR55. As to conditions: read-out: Human GPR55 IC50; ref [48]; cited from earlier work.
Assay [6] concerns the target T3, human GPR18. On the set-up: method as in PMID 22916707. As to conditions: read-out: Human GPR18 IC50; ref [47]; cited from earlier work.
In assay [7] the target is T2, CB1 receptor. Kind of assay: cell-based. The class given is cell-based. On the set-up: expressed in transfected cells; host or cells: CHO cells.
The target in assay [8] is T4, CB2 receptor. Kind of assay: cAMP accumulation assay in CHO cells expressing CB2. It counts as cell-based. On the set-up: expressed in transfected cells; host or cells: CHO cells. As to conditions: for efficacy at CB2 receptor (in words): cAMP accumulation, forskolin 10 µM, test concentration 1 µM or 10 µM, normalized to CP55,940. On the technique in general: Changes in cAMP serve as a functional read-out for many G protein-coupled receptors.

The target of another assay is CB2. The note with it: Fig. 1, standard agonists; ref [14]; cited from earlier work.
Another assay concerns the target CB1. The note with it: Fig. 1, standard agonists; ref [14]; cited from earlier work.
The mark [9] stands for this setting: Human GPR55 IC50, β-arrestin assay.
The mark [10] stands for this setting: Table S1, selectivity index from Ki values.
Where [11] appears, read: versus 0.1 nM [3H]CP55,940, CHO cell membranes, mean ± SEM of three to five experiments, read-out: Ki ± SEM Human CB1.
Setting [12] is: versus 0.1 nM [3H]CP55,940, CHO cell membranes, mean ± SEM of three to five experiments, read-out: Ki ± SEM Human CB2.

Read-outs that look alike come from different tables or passages of the source.

In general, Ki refers to a measure of affinity in units of concentration, obtained from inhibition or displacement. The EC50 is the concentration at which the effect is half-maximal. Usually IC50 stands for the concentration needed to halve the response being measured. On to `CCCCCn1cc(C(=O)Nc2cccc3ccccc23)c2ccccc21` [Compound 4, NNEI], for which the “pKi value at the CB1 receptor” value at Human CB1 (ref Blaazer et al. [33]) was 8.9. Also, the inhibition constant Ki was 1.25 nM on Human CB1 (ref Blaazer et al. [33]), 100 nM on Human CB2 (ref Blaazer et al. [33]), 1.82 ± 0.35 nM on CB1 receptor [2] (setting [11]) and 21.9 ± 5.5 nM on CB2 receptor [4] (setting [12]). For the same compound, the EC50 on human GPR55 [1] and at human GPR18 [3] was above 10000 nM each time. In addition, the half-inhibitory concentration (IC50) on human GPR55 [1] (setting [9]) and against human GPR18 [3] was above 10000 nM in each case. Further, the “Human GPR55 % activation” value on human GPR55 [1] (β-arrestin assay) is reported as 26%. The “Human GPR55 % inhibition” value at human GPR55 [1] (β-arrestin assay) is 30%. Also, on CB1 receptor [2] (setting [10]), the “CB1 selectivity Ki CB2/KiCB1” value stood at 12.0. In addition, at human GPR18 [3] (β-arrestin assay), the “Human GPR18 % activation” value worked out at 42%. At human GPR18 [3] (β-arrestin assay), the “Human GPR18 % inhibition” value was −15%.
On to `CCCCCn1cc(C(=O)C2C(C)(C)C2(C)C)c2ccccc21` [Compound 37, UR-144], for which the inhibition constant (Ki) on Human CB1 (ref Frost et al. [40]) was 150 nM; at Human CB2 (ref Frost et al. [40]) it was 1.8 nM; at CB1 receptor [2] (setting [11]) it was 55.9 ± 6.5 nM; on CB2 receptor [4] (setting [12]), 1.49 ± 0.25 nM. For the same compound, the concentration giving a half-maximal response (EC50) at human GPR55 [1] and at human GPR18 [3] was above 10000 nM throughout. In addition, the values for the IC50 on human GPR55 [1] (setting [9]) and against human GPR18 [3] were 6700 ± 1650 nM and above 10000 nM, respectively. In addition, on human GPR55 [1] (β-arrestin assay), the “Human GPR55 % activation” value is −5%. In addition, the “Human GPR18 % activation” value at human GPR18 [3] (β-arrestin assay) was 17%. Besides, at human GPR18 [3] (β-arrestin assay), the “Human GPR18 % inhibition” value was 14%. In addition, the “CB2 selectivity Ki CB1/KiCB2” value at CB2 receptor [4] (setting [10]) is given as 37.5.
In the case of `CCCCCCC(C)(C)c1ccc([C@@H]2CC(O)CC[C@H]2CCCO)c(O)c1` (single isomer, unassigned; (-)) [Compound 2, (−)-cis-3-[2-hydroxy-4-(1,1-dimethylheptyl)phenyl]-trans-4-(3-hydroxypropyl)cyclohexanol], the IC50 was 1610 nM at human GPR55 [5] and 5990 nM at human GPR18 [6].
As to `CC1(C)C(C(=O)c2cn(CCCC(F)(F)F)c3ccccc23)C1(C)C` [Compound 41, XLR-12], the “efficacy at CB1 receptor (in words)” value on CB1 receptor [7] (cAMP accumulation, forskolin 10 µM, test concentration 1 µM or 10 µM, normalized to CP55,940) is given as “lower efficacy than Δ^9-THC”. Further, the EC50 on CB1 receptor [7] (full concentration response curve, read-out: CB1: EC50, inhibition of cAMP accumulation) was 11.7 ± 6.5 nM; on CB2 receptor [8], 0.391 nM; at human GPR55 [1], above 10000 nM; on human GPR18 [3] it was above 10000 nM. For the same compound, the Ki on Human CB1 (ref Frost et al. [40]) was 15 nM; at Human CB2 (ref Frost et al. [40]), 0.09 nM; on CB1 receptor [2] (setting [11]), 43.7 ± 5.9 nM; on CB2 receptor [4] (setting [12]) it was 0.831 ± 0.331 nM. Also, the CB2-selectivity previously reported in the assay on Human CB2 (ref [40]) is given as 167 fold. In addition, the “CB2-selectivity in functional assay (EC50 CB1 vs CB2)” value at CB2 receptor [8] (cAMP accumulation EC50 values) is recorded as 30 fold. Besides, the “efficacy at CB2 receptor (in words)” value on CB2 receptor [8] was “lower efficacy than Δ^9-THC”. The concentration for half-maximal inhibition (IC50) at human GPR55 [1] (setting [9]) was 4560 ± 1970 nM; against human GPR18 [3], above 10000 nM. The “Human GPR55 % activation” value at human GPR55 [1] (β-arrestin assay) is reported as −5%. The “Human GPR18 % activation” value at human GPR18 [3] (β-arrestin assay) came to 27%. Also, the “Human GPR18 % inhibition” value at human GPR18 [3] (β-arrestin assay) is 13%. Also, the “CB2 selectivity Ki CB1/KiCB2” value on CB2 receptor [4] (setting [10]) turned out to be 52.6.
Take `CCCCCn1cc(C(=O)c2cccc3ccccc23)c2ccccc21` [Compound 3, JWH-018]: the inhibition constant Ki on CB2 is 2.9 nM; at CB1 it was 9 nM.
For `COc1cccc2c(C(=O)C3C4(C)CCC(C4)C3(C)C)c(C)n(CCN3CCOCC3)c12` (stereo not shown) [Compound 48, MN-25], the inhibition constant (Ki) on Human CB1 (ref Wroblenski et al.[39]) is 245 nM; on Human CB2 (ref Wroblenski et al.[39]) it was 11 nM; on CB1 receptor [2] (setting [11]), 780 ± 66 nM; on CB2 receptor [4] (setting [12]) it was 2.77 ± 1.59 nM. The concentration for a half-maximal effect (EC50) on human GPR55 [1] (read-out: Human GPR55 EC50, β-arrestin assay, agonist mode) is above 10000 nM; at human GPR18 [3] (read-out: Human GPR18 EC50, β-arrestin assay, agonist mode) it was above 10000 nM. For the same compound, the IC50 is above 10000 nM on human GPR55 [1] (read-out: Human GPR55 IC50, β-arrestin assay) and above 10000 nM on human GPR18 [3] (read-out: Human GPR18 IC50, β-arrestin assay, antagonist mode). In addition, the “Human GPR55 % activation” value on human GPR55 [1] (β-arrestin assay) was −8%. In addition, the “Human GPR55 % inhibition” value on human GPR55 [1] (β-arrestin assay) was 47%. Further, the “Human GPR18 % activation” value at human GPR18 [3] (β-arrestin assay) was −12%. Further, the “Human GPR18 % inhibition” value at human GPR18 [3] (β-arrestin assay) is given as 30%. Further, the “CB2 selectivity Ki CB1/KiCB2” value at CB2 receptor [4] (setting [10]) came to 282.
Turning to `CN1CCCCC1Cn1cc(C(=O)C2C(C)(C)C2(C)C)c2ccccc21` (stereo not shown) [Compound 43, AB005], the “efficacy at CB1 receptor (in words)” value at CB1 receptor [7] is listed as “lower efficacy than Δ^9-THC”. In addition, the inhibitory constant (Ki) on Human CB1 (ref Frost et al. [40]) is 5.5 nM; at Human CB2 (ref Frost et al. [40]) it was 0.48 nM; at CB1 receptor [2] it was 59.4 nM; at CB2 receptor [4], 1.04 nM. Further, the “efficacy at CB2 receptor (in words)” value on CB2 receptor [8] was “lower efficacy than Δ^9-THC”. Moreover, the EC50 at human GPR55 [1] and at human GPR18 [3] was above 10000 nM each time. For the same compound, the half-maximal inhibitory concentration (IC50) on human GPR55 [1] (setting [9]) and at human GPR18 [3] was above 10000 nM each time. The “Human GPR55 % activation” value on human GPR55 [1] (β-arrestin assay) was 16%. In addition, the “Human GPR55 % inhibition” value at human GPR55 [1] (β-arrestin assay) is 39%. The “Human GPR18 % activation” value at human GPR18 [3] (β-arrestin assay) is given as −38%. The “Human GPR18 % inhibition” value on human GPR18 [3] (β-arrestin assay) was −2%. On CB2 receptor [4], the “CB2 selectivity Ki CB1/KiCB2” value was 57.1.
